Earlier results as cited in patent publication US20140200276A1 (iCeutica, Inc., priority 2009, published 2014).

administered dose excreted in the feces (in vivo): ≤ 3%
excreted in the urine as 6-O-desmethyl naproxen (in vivo): < 1%
naproxen from any dose excreted in the urine (total): Approximately 95%
excreted in the urine as naproxen (unchanged naproxen): < 1%
Structure (SMILES): COc1ccc2cc([C@H](C)C(=O)O)ccc2c1 [naproxen]
